This note sets out measurements from patent publication US6953809B2, “Monocyte chemoattractant protein-1 inhibitor compounds” (Zeneca Limited, priority 1997, dated 2005).

Where two headings read alike, the source gives them in different places.

For one series, the target named is T1, MCP-1 receptor B (CCR2B) (Homo sapiens, UniProt P41597).
T1 construct: expressed in transfected cells; membrane fragments
T1 sequence (P41597 1-360 isoform P41597-2): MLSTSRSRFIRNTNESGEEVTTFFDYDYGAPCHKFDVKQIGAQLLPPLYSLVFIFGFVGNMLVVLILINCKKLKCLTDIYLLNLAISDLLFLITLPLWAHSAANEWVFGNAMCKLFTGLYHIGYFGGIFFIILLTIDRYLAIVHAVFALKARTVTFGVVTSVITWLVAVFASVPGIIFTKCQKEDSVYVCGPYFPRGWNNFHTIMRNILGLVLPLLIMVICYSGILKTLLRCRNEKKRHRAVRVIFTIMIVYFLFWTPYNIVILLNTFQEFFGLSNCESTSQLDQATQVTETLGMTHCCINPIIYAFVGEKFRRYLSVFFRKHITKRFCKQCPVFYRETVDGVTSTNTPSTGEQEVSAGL
Description: hMCP-1 receptor-binding assay (125I-MCP-1 competition on CHO-CCR2B cell membranes). The source says:
a) hMCP-1 Receptor-Binding Assay i) Cloning and Expression of hMCP-1 Receptor
The MCP-1 receptor B (CCR2B) cDNA was cloned by PCR from THP-1 cell RNA using suitable oligonucleotide primers based on the published MCP-1 receptor sequences (Charo et al., 1994, Proc. Natl. Acad. Sci. USA, 91, 2752). The resulting PCR products were cloned into vector PCR-II™ (InVitrogen, San Diego, Calif.). Error free CCR2B cDNA was subcloned as a Hind III-Not I fragment into the eukaryotic expression vector pcDNA3 (InVitrogen) to generate pcDNA3/CC-CKR2A and pcDNA3/CCR2B respectively.
Linearised pcDNA3/CCR2B DNA was transfected into CHO-K1 cells by calcium phosphate precipitation (Wigler et al., 1979, Cell, 16, 777). Transfected cells were selected by the addition of Geneticin Sulphate (G418, Gibco BRL) at 1 mg/ml, 24 hours after the cells had been transfected. Preparation of RNA and Northern blotting were carried out as described previously (Needham et al., 1995, Prot. Express. Purific., 6, 134). CHO-K1 clone 7 (CHO-CCR2B) was identified as the highest MCP-1 receptor B expressor. […]
ii) Preparation of Membrane Fragments […]
^125I MCP-1 was prepared using Bolton and Hunter conjugation (Bolton et al., 1973, Biochem. J., 133, 529; Amersham International plc]. Equilibrium binding assays were carried out using the method of Ernst et al., 1994, J. Immunol., 152, 3541. Briefly, varying amounts of ^125I-labeled MCP-1 were added to […] of purified CHO-CCR2B cell membranes in […] of Binding Buffer. After 1 hour incubation at room temperature the binding reaction mixtures were filtered and washed 5 times through a plate washer (Packard Harvester Filtermate™ 196). Scintillation fluid (25 μl, Microscint™-20, a high efficiency liquid scintillation counting cocktail for aqueous samples) was added to each well and the plate was covered with plate sealer and counted (Packard Top Count™). […] Non-specific binding was determined by the inclusion of a 200-fold molar excess of unlabelled MCP-1 in the reaction. […]

Series [1] relates to THP-1 cells. Description: MCP-1 mediated calcium flux in THP-1 cells. The class given is cell-based, human. Conditions: stimulation of THP-1 cells with hMCP-1; dose response curves; read-out: approximate EC50 for rise in [Ca2+]i. Here is the method: b) MCP-1 Mediated Calcium Flux in THP-1 Cells
The human monocytic cell line THP-1 was grown in a synthetic cell culture medium RPMI 1640 supplemented with 10% foetal calf serum, 2 mM glutamine and Penicillin-Streptomycin (at 50 μg streptomycin/mil, Gibco BRL). THP-1 cells were washed in HBSS (lacking Ca^2+ and Mg^2+)+1 mg/ml BSA and resuspended in the same buffer at a density of 3×10^6 cells/ml. The cells were then loaded with […] FURA-2/AM for 30 min at 37° C., washed twice in HBSS, and resuspended at 1×10^6 cells/ml. […] The cuvette was placed in a fluorescence spectrophotometer (Perkin Elmer, Norwalk, Conn.) and preincubated for 4 min at 37° C. with stirring. Fluorescence was recorded over 70 sec and cells were stimulated by addition of hMCP-1 to the cuvette after 10 sec. [Ca^2+]i was measured by excitation at 340 nm and 380 nm alternately and subsequent measurement of the intensity of the fluorescence emission at 510 nm. […] Rmax is the maximal fluorescence ratio determined after addition of […] Ionomycin, Rmin is the minimal ratio determined by the subsequent addition of a Ca^2+ free solution containing 5 mM EGTA, and Sf2/Sb2 is the ratio of fluorescence values at 380 nm excitation determined at Rmin and Rmax, respectively. […]
On the technique in general: Calcium assays in cells follow changes in intracellular calcium, usually with a dye or a luminescent sensor.

Series [2] deals with THP-1 cells. Description: hMCP-1 mediated chemotaxis assay. The following applies: hMCP-1 induced concentration dependent cell migration. It is filed as cell-based, human. Here is the method:
c) hMCP-1 Mediated Chemotaxis Assay.
In vitro chemotaxis assays were performed using either the human monocytic cell line THP-1 or peripheral blood mixed monocytes obtained from fresh human blood purified by erythrocyte sedimentation followed by density gradient centrifugation over 9.6%(w/v) sodium metrizoate and 5.6%(w/v) polysaccharide, density 1.077 g/ml (Lymphoprep™ Nycomed). Cell migration through polycarbonate membranes was measured by enumerating those passing through either directly by Coulter counting or indirectly by use of a colourimetric viability assay measuring the cleavage of a tetrazolium salt by the mitochondrial respiratory chain (Scudiero D. A. et al. 1988, Cancer Res., 48, 48274833).
Chemoattractants were introduced into a 96-well microtiter plate which forms the lower well of a chemotaxis chamber fitted with a PVP-free 5 μm poresize polycarbonate adhesive framed filter membrane (NeuroProbe MB series, Cabin John, Md. 20818, USA) according to the manufacturer's instructions. The chemoattractant was diluted as appropriate in synthetic cell culture medium, RPMI 1640 (Gibco) supplemented with 2 mM glutamine and 0.5% BSA. […] The plate was incubated at 37° C. for 3 h and the absorbance of the soluble formazan product was read on a microtitre plate reader at 450 nm. […]

Regarding `COc1cccc2c1cc(C(=O)O)n2Cc1ccc(Cl)c(Cl)c1`, the melting point (commonly the temperature of the solid-liquid transition) lay in the range of 220 to 221 °C.
Consider `CC(=O)c1ccc2c(c1)cc(C(=O)O)n2Cc1ccc(Cl)c(Cl)c1` [Example 3.85, 5-Acetyl-N-(3,4-Dichlorobenzyl)indole-2-carboxylic acid], for which the melting point was in the range of 261 to 262 °C.
The same measure, in the same setting: the value for `O=C(O)c1cc2cc(Br)ccc2n1Cc1ccc(Cl)c(Cl)c1` was 232 to 233 °C; that for `O=C(O)c1c([C@@H]2C[C@H]2C(=O)O)c2ccccc2n1Cc1ccc(Cl)c(Cl)c1` (relative stereo) [Example 3.58, N-(3,4-Dichlorobenzyl)-3-(trans-2-carboxy-cyclopropyl)indole-2-carboxylic acid] was 184 to 185 °C.
The same measure, in the same setting: the value for `CC(=O)Nc1ccc2c(c1)cc(C(=O)O)n2Cc1ccc(Cl)c(Cl)c1` [Example 4, N-(3,4-Dichlorobenzyl)-5-acetylaminoindole-2-carboxylic acid] was 245 to 246 °C.
On the same count and under the same terms, the value for `O=C(O)c1cc2ccc([N+](=O)[O-])cc2n1Cc1ccc(Cl)c(Cl)c1` [Example 3.64, N-(3,4-Dichlorobenzyl)-6-nitroindole-2-carboxylic acid] was 256 to 257 °C; that for `COc1ccc2cc(C(=O)O)n(Cc3ccc(Cl)c(Cl)c3)c2c1` was 165 to 166 °C; that for `CCOC(=O)c1cc2cc(Br)ccc2n1Cc1ccc(Cl)c(Cl)c1` [Example 1.04, Ethyl 5-bromo-N-(3,4-dichlorobenzyl)indole-2-carboxylate] was 95 to 96 °C.
Turning to `COc1ccc(Cn2c(C(=O)O)cc3cc(F)ccc32)cc1` [Example 3.23, 5-Fluoro-N-(4-methoxybenzyl)indole-2-carboxylic acid], on MCP-1 receptor B (CCR2B) (competition with 100 pM labelled MCP-1, CHO-CCR2B cell membranes, read-out: IC50 in the hMCP-1 receptor binding assay), the IC50 (commonly the point on the concentration scale where inhibition reaches its midpoint) came to 7380 nM.
In turn, `O=C(O)c1cc2ccccc2n1Cc1ccc(Cl)c(Cl)c1` gave a melting point of 198 °C.
Take `CCOC(=O)c1cc2cc([N+](=O)[O-])ccc2n1Cc1ccc(Cl)c(Cl)c1` [Example 1.03, Ethyl N-(3,4-dichlorobenzyl)-5-nitroindole-2-carboxylate]: the melting point fell in the range of 133 to 140 °C.
On the same count and under the same terms, the value for `O=C(O)c1cc2c([N+](=O)[O-])cccc2n1Cc1ccc(Cl)c(Cl)c1` [Example 3.65, N-(3,4-Dichlorobenzyl)-4-nitroindole-2-carboxylic acid] was 296 to 297 °C; that for `O=C(O)c1cc2ccc(Cl)cc2n1Cc1ccc(Cl)c(Cl)c1` was 219 to 220 °C.
As to “MCP-1: human Monocyte Chemoattractant Protein-1, a C—C chemokine; natural ligand used to validate the assays”, the IC50 in the series with MCP-1 receptor B (CCR2B) (membrane fragments from CHO-CCR2B cells, cold competition with 125I-labeled MCP-1, read-out: IC50 of MCP-1 binding to CCR2B) came to 0.11 nM. For the same compound, the Kd (in general, the concentration at which binding is half-saturated) with MCP-1 receptor B (CCR2B) (membrane fragments from CHO-CCR2B cells, equilibrium binding) is 0.12 nM. Further, the EC50 (commonly the concentration that produces a half-maximal response) with THP-1 cells [1] is about 2 nM. For the same compound, in the series on THP-1 cells [2], the “concentration of maximal cell migration (biphasic response)” value was 0.5-1.0 nm.
Consider `CC(=O)c1c(C(=O)O)n(Cc2ccc(Cl)c(Cl)c2)c2ccccc12`, for which the melting point lay within 163 to 164 °C.
The same measure, in the same setting: the value for `O=C(O)c1cc2ccc(C(F)(F)F)cc2n1Cc1ccc(Cl)c(Cl)c1` was 238 to 239 °C.
